Experimental data reported in patent US8846643B2, “Phosphonates with reduced toxicity for treatment of viral infections” (The Regents of the University of California, priority 2010, dated 2014).
Read-outs that look alike come from different tables or passages of the source.

Tests used:
[1] = system: HCV genotype 1b replicon (BM4-5); assay: anti-HCV activity in genotype 1b replicon (BM4-5); format: cell-based, hepatitis C virus; conditions: for EC50: Hepatitis C virus, BM4-5, read-out: EC50 (μM) BM4-5(1b); for anti-HCV activity (in words): HCV replication in vitro
HIV-1 [2] = assay: microbe, parasite or virus in culture
MT-2 cells = assay: cytotoxicity in MT-2 cells; conditions: MT-2 cells
[3] = system: HCV genotype 2a replicon (JFH-1); assay: anti-HCV activity in genotype 2a replicon (JFH-1); format: cell-based, hepatitis C virus; conditions: for EC50: Hepatitis C virus, read-out: EC50 (μM) JFH-1 (2a)
HIV-1 [4] = conditions: for anti-HIV activity (in words): HIV-1 infected MT-2 cells
Huh 7.5 cells = assay: cytotoxicity (CC50) in HCV replicon cells / Huh 7.5 liver cells; conditions: cytotoxicity in replicon cells
[5] = biological target: HIV-1 reverse transcriptase (Human immunodeficiency virus type 1 group M subtype B, UniProt P04585); assay: HIV reverse transcriptase assay with primer-template pairs; format: biochemical; conditions: HIV-1 reverse transcriptase 50 nM, 37° C., 5 min
Description: (S)-MPMPA diphosphate was prepared as described in Example 56. Radiolabeled [γ-^32P]ATP and cordycepin triphosphate ([α-^32P]3′-deoxyATP) was purchased from PerkinElmer, and unlabeled deoxynucleoside triphosphates (dNTPs) were from Fermentas. RNA oligonucleotides were purchased from Sigma.
Oligonucleotide primer-template pairs were used as substrates for reverse transcriptase assays. Reverse transcriptase assays utilized RNA oligonucleotide templates. The primers were first end-labeled by using [γ-^32P]ATP and T4 polynucleotide kinase prior to annealing to the template strand. Various combinations of dNTPs and (S)-MPMPApp were added. […] After incubation of controls and (S)-MPMPA at 37° C. for 5 min, reaction mixtures were stopped by the addition of gel loading buffer [80% (v/v) formamide, 10 mM EDTA (pH 8.0), 1 mg/ml xylene cyanol FF, 1 mg/ml bromophenol blue]. Reaction products were resolved on 10% polyacrylamide gels and analyzed by phosphorimager analysis as previously described (Magee et al., 2005) using a Typhoon 9400 phosphorimager.).

Cowpox [6] = conditions: data from Beadle et al.; cited from earlier work
Vaccinia [7] = conditions: reported previously; read-out: EC50 for vaccinia inhibition; cited from earlier work
in vitro = conditions: human, HFF fibroblasts
HCMV [8] = conditions: data from Beadle et al.; cited from earlier work
[9] = cytotoxicity in MT-2 cells; conditions: human
[10] = cytotoxicity (CC50) in HCV replicon cells / Huh 7.5 liver cells; conditions: human
HIV-1NL43 = assay: HIV-1 replication in human peripheral blood mononuclear cells; format: cell-based; conditions: for activity against HIV-1 in human PBMCs (in words): HIV-1 infected human PBMCs; for EC50: Human immunodeficiency virus 1, PBMC, HIV-1NL43 in human PBMCs
HSV-1 = assay: antiviral activity against HSV-1, plaque reduction assay in HFF cells; format: cell-based, herpes simplex virus, type 1; conditions: Human alphaherpesvirus 1, HFF, read-out: EC50 (μM) HSV-1
Cowpox [11] = assay: organism not typed; format: cell-based; conditions: read-out: EC50 (μM) Cowpox
HCMV [12] = assay: antiviral activity against HCMV, plaque reduction assay in HFF cells; format: cell-based, human cytomegalovirus; conditions: Human betaherpesvirus 5, HFF, read-out: EC50 (μM) HCMV
[13] = cytotoxicity in human PBMCs
Vaccinia [14] = assay: microbe, parasite or virus in culture; format: cell-based; conditions: Orthopoxvirus vaccinia
[15] = antiviral activity and cytotoxicity of unmodified MPMPA (system not stated)
[16] = Human immunodeficiency virus 1, MT2, MT-2 cells infected with HIV-1
[17] = Human immunodeficiency virus 1, MT2

Compound | EC50 [1] [µM] | CC50 (MT-2 cells) [µM] | EC50 [3] [µM] | anti-HIV activity (in words) (HIV-1 [4]) | CC50 (Huh 7.5 cells) [µM] | EC50 (HIV-1 [2]; [17]) [µM] | activity against HIV-1 in human PBMCs (in words) (HIV-1NL43) | CC50 [13] [µM] | other results
CCCCCCCCCCCCCCCCOCCCOP(=O)(O)COC(COCC)Cn1cnc2c(=O)[nH]c(N)nc21 (racemic) [Cmpd 37, Hexadecyloxypropyl (R,S)-9-[3-ethoxy-2-phosphonomethoxy)propyl]guanine] | 25.5 ± 10.4 | 14.9 ± 6.7 | 13.2 ± 3.45 | large loss of anti-HIV activity | > 150 |  |  |  | Selectivity Index BM4-5 (1b) ([1]; genotype 1b replicon): >5.88; EC50 (HIV-1 [2]; [16]): > 10 µM; Selectivity Index JFH-1 (2a) ([3]; genotype 2a replicon): >11.4
COC[C@H](Cn1cnc2c(N)ncnc21)OCP(=O)(O)OP(=O)(O)OP(=O)(O)O [(S)-MPMPA diphosphate] |  |  |  |  |  |  |  |  | inhibition of HIV reverse transcriptase activity (in words) [5]: inhibited HIV reverse transcriptase activity by chain termination
CCCCCCCCCCCCCCCCCCOCCOP(=O)(O)CO[C@H](CO)Cn1cnc2c(N)ncnc21 [Cmpd 1, octadecyloxyethyl 9-(S)-[3-hydroxy-2-(phosphonomethoxy)propyl]adenine, reference compound] | 1.55 ± 0.5 | 0.033 | 1.65 ± 0.33 |  |  | 0.0001 | highly active and selective |  | EC50 (Cowpox [6]): 0.05 ± 0.04 µM; EC50 (Vaccinia [7]): 0.02 µM; CC50 (in vitro): 0.58 ± 0.3 µM; EC50 (HCMV [8]): 0.003 ± 0.001 µM; CC50 [9]: 0.03 ± 0.02 µM; CC50 [10]: 35.6 µM
CCCCCCCCCCCCCCCCCCOCCOP(=O)(O)CO[C@H](COC)Cn1cnc2c(N)ncnc21 [Cmpd 15, Octadecyloxyethyl (S)-9-[(3-methoxy-2-phosphonomethoxy)propyl]adenine] | 1.43 ± 0.38 |  | 2.38 ± 1.09 | potent inhibitory activity | > 150 | 0.03 |  | > 10 | anti-HCV activity (in words) [1]: potent inhibitory activity; CC50 (in vitro): 23.8 ± 2.6 µM; EC50 (HSV-1): 45.7 ± 10.1 µM; EC50 (Cowpox [11]): > 20 µM; EC50 (HCMV [12]): 1.55 ± 0.4 µM; CC50 ([10]; Huh 7.5 liver cells): > 150 µM; EC50 (HIV-1NL43): ~0.005 µM; EC50 (Vaccinia [14]; read-out: EC50 (μM) Vaccinia): 18.3 ± 2.4 µM; EC50 (Vaccinia [14]; read-out: EC50 for vaccinia inhibition): 18.3 µM
CCCCCCCCCCCCCCCCOCCCOP(=O)(O)CO[C@H](COC)Cn1cnc2c(N)ncnc21 [Cmpd 17] | 2.36 | 32 ± 11 | 4.64 | less active | > 150 | 0.2 ± 0.26 | active and selective | > 10 | EC50 (HIV-1NL43): 0.2 µM
CCCCCCCCCCCCCCCCOCCCOP(=O)(O)CO[C@H](COC)Cn1cnc2c(N)nc(N)nc21 [Cmpd 25] | 21.3 ± 3.1 | 22.7 ± 6.8 | 23.6 ± 2.7 | less active | 91.5 ± 17.8 |  |  |  | EC50 (HIV-1 [2]; [16]): 4.6 ± 1.8 µM
CCCCCCCCCCCCCCCCOCCCOP(=O)(O)CO[C@H](COC)Cn1cnc2c(=O)[nH]c(N)nc21 [Cmpd 36] | 22 ± 4.97 | 29.3 ± 3.1 | 24.8 ± 7 | less active | > 150 | 2.03 ± 0.95 |  | > 100 | activity against HIV-1 in human PBMCs (in words) (HIV-1NL43; listed as HDP-(S)-MPMPG): active and selective; activity against HIV-1 in human PBMCs (in words) (HIV-1NL43; listed as hexadecyloxypropyl-(S)-MPMPG): submicromolar activity
CCCCCCCCCCCCCCCCCCOCCOP(=O)(O)CO[C@H](COC)Cn1ccc(N)nc1=O [Cmpd 40, Octadecyloxyethyl (S)-1-[(3-methoxy-2-phosphonomethoxy)propyl]cytosine] | > 150 | 60.7 ± 16 | > 150 |  | > 150 | 12.7 | antiviral activity |  | anti-HCV activity (in words) [1]: inactive; Selectivity Index (HIV-1 [4]; MT-2 cells, HIV-1): 4.8
COC[C@H](Cn1cnc2c(N)ncnc21)OCP(=O)(O)O [MPMPA, 9-(S)-[3-methoxy-2-(phosphonomethoxy)propyl]adenine] |  |  |  |  |  |  |  |  | CC50 ([15]; cells not given): 40 µM; EC50 ([15]; virus and cells not stated): 20 µM
